Experimental data published in patent publication US6376682B1, “Compound with α-glucosidase inhibiting action and method for producing the same” (Takama System, Ltd., priority 2000, dated 2002).

Experiments:
[1] = tested on: blood sugar elevation caused by sucrose loading; experiment: Inhibiting effect on hyperglycemia in the case of sucrose loading; format: in vivo, male Wistar rats; details: rats; for Rate of inhibition of blood sugar elevation 30 minutes: po, 30 minutes after sucrose loading
Method: The test was oraly administered as an aqueous solution to fasting male Wistar rats (body weight: 130 to 170 g.
Next after 30 minutes, the sucrose was orally administered to the rats.
Then, 30 minutes, after the administered of the sugar, 0.4 ml of blood was taken from the neck artery of each animal with the animal under restraint without anesthesia (during blood collection only). following colling with ice water, the blood serum was separated by centrifuging, and the glucose concentration (blood sugar level) was measured by the glucose oxidase method (Glucose CII Test Wako).
The above-described test was performed for the novel compound SP (product of the present invention) and Acabose(clnventional roduct).

[2] = tested on: β-glucosidase originating in almonds; experiment: Activity inhibiting effect on β-glucosidase; format: biochemical; details: substrate p-nitrophenol-β-D-glycopyronoside, pH 5.0
Method: β-glucosidase originating in almonds (manufactured by Sigma Co.) was dissolved in a 0.1 M acetic acid buffer solution (pH=5.0), and this solution was diluted to a concentration at which the substrate was hydrolyzed at the rate of 5 n/mol/ml/minute.
100 μL of the test drug was added to 50 μL of 10 mM p-nitrophenol-β-D-glycopyronoside (manufactured by Sigma Co.) used as a substrate, and this mixture was preheated for 5 minutes at 37° C.
Next, 50 μL of the enzyme solution was added, and a reaction was performed for 15 minutes. The reaction was stopped by adding 200 μL of a 0.2 M sodium carbonate solution.
The amount of p-nitrophenol produced was determined from the absorbance at 400 nm.
The substrate and test drug were both dissolved in a 0.1 M acetic acid buffer solution (pH=5.0) prior to use.

[3] = target: T1, isomaltase originating in the small intestines of rats (Rattus norvegicus, UniProt P23739); experiment: Inhibiting effect on isomaltase, rat jejunum brush border membrane crude enzyme; format: biochemical; details: times stronger than Acarbose
T1 construct: The brush border membrane obtained from the jejunum of male Wistar rats (body weight: 150 to 350 g) was used as a crude enzyme; from tissue; host or cells: jejunal brush border membrane of male Wistar rats
T1 sequence (P23739 whole entry): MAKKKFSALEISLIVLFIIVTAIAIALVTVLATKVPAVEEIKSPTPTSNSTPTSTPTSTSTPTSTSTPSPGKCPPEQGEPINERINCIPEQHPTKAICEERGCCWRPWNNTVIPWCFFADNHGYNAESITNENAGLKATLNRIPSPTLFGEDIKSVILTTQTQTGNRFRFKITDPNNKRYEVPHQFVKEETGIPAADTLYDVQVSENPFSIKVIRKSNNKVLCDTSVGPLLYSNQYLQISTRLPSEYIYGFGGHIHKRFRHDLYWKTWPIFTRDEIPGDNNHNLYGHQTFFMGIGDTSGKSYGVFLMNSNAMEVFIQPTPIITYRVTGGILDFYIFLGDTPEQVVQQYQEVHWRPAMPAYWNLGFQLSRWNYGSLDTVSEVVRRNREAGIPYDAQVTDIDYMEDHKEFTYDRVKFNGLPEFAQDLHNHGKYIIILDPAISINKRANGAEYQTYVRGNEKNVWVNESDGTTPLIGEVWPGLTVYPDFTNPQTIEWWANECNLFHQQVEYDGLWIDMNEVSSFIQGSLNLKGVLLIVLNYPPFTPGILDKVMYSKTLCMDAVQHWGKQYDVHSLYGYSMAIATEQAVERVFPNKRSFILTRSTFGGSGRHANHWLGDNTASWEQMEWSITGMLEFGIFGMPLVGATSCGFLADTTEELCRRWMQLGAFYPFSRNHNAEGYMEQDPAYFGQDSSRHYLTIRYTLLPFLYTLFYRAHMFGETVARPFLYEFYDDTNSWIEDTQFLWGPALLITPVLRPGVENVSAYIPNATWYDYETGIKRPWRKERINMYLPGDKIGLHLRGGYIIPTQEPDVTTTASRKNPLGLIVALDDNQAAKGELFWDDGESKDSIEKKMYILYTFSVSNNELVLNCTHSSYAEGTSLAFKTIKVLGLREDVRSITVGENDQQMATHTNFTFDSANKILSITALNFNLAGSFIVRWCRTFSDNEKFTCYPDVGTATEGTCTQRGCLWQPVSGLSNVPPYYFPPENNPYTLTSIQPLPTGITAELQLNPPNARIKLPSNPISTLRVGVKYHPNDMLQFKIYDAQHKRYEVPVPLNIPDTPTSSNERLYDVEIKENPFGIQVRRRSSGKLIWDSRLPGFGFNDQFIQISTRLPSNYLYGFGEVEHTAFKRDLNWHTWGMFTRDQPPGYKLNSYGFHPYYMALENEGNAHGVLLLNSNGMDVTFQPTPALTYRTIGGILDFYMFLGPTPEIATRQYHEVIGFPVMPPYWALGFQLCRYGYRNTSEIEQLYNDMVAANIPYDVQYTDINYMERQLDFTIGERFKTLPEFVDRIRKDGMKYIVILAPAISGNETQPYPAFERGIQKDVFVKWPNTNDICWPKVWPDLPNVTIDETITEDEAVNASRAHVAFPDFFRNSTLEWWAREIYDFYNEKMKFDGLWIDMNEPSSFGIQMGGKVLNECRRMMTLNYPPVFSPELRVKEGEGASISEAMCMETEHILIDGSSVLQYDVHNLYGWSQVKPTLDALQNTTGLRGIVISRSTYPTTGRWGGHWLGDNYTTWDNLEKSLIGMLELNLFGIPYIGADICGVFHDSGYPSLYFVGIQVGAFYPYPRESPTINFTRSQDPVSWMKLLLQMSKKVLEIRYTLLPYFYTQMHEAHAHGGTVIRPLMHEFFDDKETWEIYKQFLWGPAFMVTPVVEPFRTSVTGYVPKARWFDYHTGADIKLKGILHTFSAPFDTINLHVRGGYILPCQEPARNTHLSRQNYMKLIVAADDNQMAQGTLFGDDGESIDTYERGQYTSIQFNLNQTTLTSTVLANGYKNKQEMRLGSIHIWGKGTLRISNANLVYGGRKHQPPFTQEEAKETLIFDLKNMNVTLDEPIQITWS
Method: The brush border membrane obtained from the jejunum of male Wistar rats (body weight: 150 to 350 g) was used as a crude enzyme.
The brush border membrane was suspended in a 0.01 M maleic acid buffer solution (pH=6.0), and this suspension was diluted to a concentration at which the substrate was hydrolyzed at the rate of approximately 25 to 50 n/mol/ml/minute.
For maltase, sucrase and isomaltase, 100 μL of various concentrations of the test drug was added to 50 μL of respective 74 mM maltose, sucrose and isomaltose (used as substrates), and the resulting preparations were pre-heated for 2 to 3 minutes at 37° C.
Next, 50 μL of the enzyme solution was added, and a reaction was performed for 30 minutes. The reaction was stopped by adding 800 μL of water, and placing the reaction mixture in a water bath at 92 to 97° C. for 2 minutes.
The amount of glucose produced was measured by the glucose oxidase method (Glucose CII Test Wako).
In the above, the substrates and test drug were both dissolved in a maleic acid buffer solution (pH=6.0) prior to use.

Row | Activity inhibiting effect on β-glucosidase [2] | Inhibitory effect against isomaltose relative to Acarbose [3] | SMILES | Rate of inhibition of blood sugar elevation 30 minutes ([1]; 5 mg/kg) | Rate of inhibition of blood sugar elevation 30 minutes ([1]; 10 mg/kg) | Rate of inhibition of blood sugar elevation 30 minutes ([1]; 25 mg/kg) | Effect in inhibiting the elevation of blood sugar levels compared with Acarbose ([1]; sucrose loading)
1 | – | – | C[C@H]1O[C@H](O[C@H]2[C@H](O)[C@@H](O)[C@@H](O[C@H]3[C@H](O)[C@@H](O)C(O)O[C@@H]3CO)O[C@@H]2CO)[C@H](O)[C@@H](O)[C@@H]1N[C@H]1C=C(CO)[C@@H](O)[C@H](O)[C@H]1O (stereo partly drawn) [Acarbose, reference compound] | 33.4 ± 6.2 | 48.5 ± 6.9 | 73.8 ± 5.2 | –
2 | no activity inhibiting effect | more than 200 times | O=S(=O)([O-])OC(CO)C(O)C[S+]1CC(O)C(O)C1CO (stereo not drawn) [SP] | 40.5 ± 2.3 | 62.1 ± 3.8 | 89.1 ± 3.5 | stronger effect in inhibiting the elevation of blood sugar levels than Acarbose
